From paper PMC10635799, “Analogs of FTY720 inhibit TRPM7 but not S1PRs and exert multimodal anti-inflammatory effects” (The Journal of General Physiology, 2023)

Legend:
[1] = system: S1P receptors; details: ref Brinkmann et al., 2002; Zhu et al., 2007; cited from earlier work
[2] = system: HeLa cells; assay: LDH-release cytotoxicity assay; format: cell-based; details: 24 h
Method: WT HeLa cells were plated at a density of 10,000 cells per well into a 96-well tissue culture microplate (3610; Costar). AAL-149, VPC01091.4, or vehicle at 0.1, 1, 5, 10, and 25 μM was added to cells with media for a final volume of 100 μl and incubated for 24 h. LDH release was quantified using a CyQUANT LDH Cytotoxicity Assay (C20300; Thermo Fisher Scientific) and a FlexStation 3 plate reader using SoftMax […] (Molecular Devices).

[3] = system: BMDMs; assay: LPS-induced inflammation assay in WT and TRPM7 KO BMDMs (qRT-PCR); format: cell-based, mice
Method: All cells were cultured at 37°C with 5% CO2. HEK 293T cells (CRL-3216; ATCC), HeLa cells (CCL-2; ATCC), RAW 264.7 macrophages (TIB-71; ATCC), and BV-2 microglial cells (ABC-TC212S; AcceGen Biotech) were cultured in DMEM (11995065; Gibco) with 10% fetal bovine serum (FBS; Avantor Seradigm Premium Grade Fetal Bovine Serum 97068-085). FBS was heat-inactivated prior to use at 56°C for 30 min. BMDMs were isolated and cultured as previously described ([Schappe et al., 2018]) and differentiated into mature macrophages over 7 d through culture in BMDM media (RPMI 1640, 10% FBS, and 20% L-929 culture supernatant; Gibco).
RAW 264.7 macrophages or BMDMs were seeded at a density of 250,000 cells per well into a 12-well tissue culture plate in 1 ml of media and left to incubate overnight. The indicated drug or vehicle control was added to each well, and the plate was agitated and left to incubate for 10 min. The cells were then treated with LPS (1 µg/ml) or an equivalent volume of PBS, agitated, and left to incubate for 3 h. Cells were washed with PBS and then RNA isolation was performed using RNeasy Plus Micro Kit (74134; Qiagen). cDNA was produced using GoScript Reverse Transcriptase (A5004; Promega) and a quantitative PCR was performed using SensiFast SYBR (98020; Bioline) and Bio-Rad CFX Connect thermocycler. Each datum represents an individual, biological replicate that is the mean of duplicate technical replicates. Fold-changes are all reported relative to untreated controls for each experiment and were calculated using the ∆∆Ct method, with β2-microglobulin used as the housekeeping gene for each sample. The experiment was performed similarly with BV-2 microglia and alveolar macrophages, except that cells were plated at a density of 100,000 cells per well into a 24-well tissue culture plate with 1 ml of media per well.

[4] = biological target: T1, mouse TRPM7 (Mus musculus, UniProt Q923J1); assay: Whole-cell patch clamp of TRPM7 current (IM7) in HEK 293T cells overexpressing mouse TRPM7; format: cell-based
T1 construct: expressed in transfected cells; host or cells: HEK 293T cells (CRL-3216; ATCC), transient transfection with jetOPTIMUS, co-transfected eGFP as a separate plasmid
T1 sequence (Q923J1 whole entry): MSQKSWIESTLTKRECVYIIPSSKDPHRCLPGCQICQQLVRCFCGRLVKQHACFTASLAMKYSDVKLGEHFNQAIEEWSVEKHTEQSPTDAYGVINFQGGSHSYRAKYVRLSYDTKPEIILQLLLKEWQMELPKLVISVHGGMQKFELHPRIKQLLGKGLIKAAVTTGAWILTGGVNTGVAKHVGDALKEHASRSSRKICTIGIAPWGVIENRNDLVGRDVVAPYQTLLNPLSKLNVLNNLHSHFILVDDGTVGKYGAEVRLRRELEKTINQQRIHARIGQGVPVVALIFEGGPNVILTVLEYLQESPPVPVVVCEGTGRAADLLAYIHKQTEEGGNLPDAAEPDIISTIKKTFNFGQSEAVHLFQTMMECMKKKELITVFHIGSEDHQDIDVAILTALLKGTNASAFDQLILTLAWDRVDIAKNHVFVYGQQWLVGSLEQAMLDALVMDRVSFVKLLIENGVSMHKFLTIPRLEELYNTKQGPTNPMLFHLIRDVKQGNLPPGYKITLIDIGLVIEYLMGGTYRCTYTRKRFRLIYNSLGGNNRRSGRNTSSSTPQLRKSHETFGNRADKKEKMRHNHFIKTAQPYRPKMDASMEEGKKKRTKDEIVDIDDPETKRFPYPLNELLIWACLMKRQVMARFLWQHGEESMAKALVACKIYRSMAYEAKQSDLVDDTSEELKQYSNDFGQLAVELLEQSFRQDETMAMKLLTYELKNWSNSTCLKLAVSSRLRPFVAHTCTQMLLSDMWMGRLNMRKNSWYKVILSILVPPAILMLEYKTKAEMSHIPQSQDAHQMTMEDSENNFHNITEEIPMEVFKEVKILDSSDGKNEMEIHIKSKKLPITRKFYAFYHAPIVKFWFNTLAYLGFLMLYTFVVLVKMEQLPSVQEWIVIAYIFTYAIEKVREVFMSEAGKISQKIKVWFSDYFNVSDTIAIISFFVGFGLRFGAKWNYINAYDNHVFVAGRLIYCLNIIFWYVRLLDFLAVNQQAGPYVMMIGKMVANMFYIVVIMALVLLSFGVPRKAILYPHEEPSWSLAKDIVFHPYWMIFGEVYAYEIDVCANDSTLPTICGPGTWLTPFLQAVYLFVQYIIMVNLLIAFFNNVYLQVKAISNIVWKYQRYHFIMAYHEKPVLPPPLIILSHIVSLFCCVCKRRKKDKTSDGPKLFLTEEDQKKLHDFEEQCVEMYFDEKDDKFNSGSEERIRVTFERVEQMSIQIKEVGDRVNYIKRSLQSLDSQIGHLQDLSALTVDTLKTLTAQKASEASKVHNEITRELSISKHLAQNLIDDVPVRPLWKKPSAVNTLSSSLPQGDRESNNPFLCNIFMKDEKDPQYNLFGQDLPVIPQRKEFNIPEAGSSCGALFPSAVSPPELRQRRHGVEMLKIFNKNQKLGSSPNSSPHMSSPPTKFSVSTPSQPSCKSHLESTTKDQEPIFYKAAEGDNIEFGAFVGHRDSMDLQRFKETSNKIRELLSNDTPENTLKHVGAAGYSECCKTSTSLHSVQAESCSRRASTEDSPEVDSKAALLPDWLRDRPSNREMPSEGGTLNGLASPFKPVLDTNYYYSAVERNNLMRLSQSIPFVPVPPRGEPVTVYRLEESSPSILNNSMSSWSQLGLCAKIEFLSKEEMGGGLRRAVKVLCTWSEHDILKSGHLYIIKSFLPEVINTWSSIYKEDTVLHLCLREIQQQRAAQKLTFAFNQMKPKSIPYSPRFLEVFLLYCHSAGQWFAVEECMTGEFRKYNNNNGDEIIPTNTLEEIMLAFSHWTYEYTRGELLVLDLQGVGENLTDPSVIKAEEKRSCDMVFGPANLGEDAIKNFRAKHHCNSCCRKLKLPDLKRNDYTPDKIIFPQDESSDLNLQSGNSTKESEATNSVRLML
Method: To overexpress TRPM7, HEK 293T cells were plated at a density of 500,000 cells per well (day 0), transfected at 80–90% confluency (day 1), and were patched 24–36 h after transfection (day 2). TRPM7 overexpression was performed using WT mouse TRPM7 (2.5 µg plasmid DNA; [Desai et al., 2012]) and jetOPTIMUS DNA Transfection Reagent (101000006; Polyplus). To enhance the selection rate of TRPM7-overexpressing cells, eGFP (#22152; Addgene) was included at a 1:10 dilution (0.25 µg) and only GFP-positive cells were patched.
Whole-cell patch clamp electrophysiology was performed as described previously ([Schappe et al., 2022]). Briefly, the external solution contained (in mM) 140 Na-methanesulfonate, 5 Cs-gluconate, 2.5 CaCl2, and 10 HEPES, pH 7.4 (adjusted with NaOH), at an osmolality of 280–290 mOsm/kg. The internal pipette solution contained (in mM) 115 Cs-gluconate, 3 NaCl, 0.75 CaCl2, 10 HEPES, 10 HEDTA, 1.8 Cs4-BAPTA, and 2 Na2ATP, pH 7.3 (adjusted with CsOH), at an osmolality of 273 mOsm/kg. Intracellular free [Ca^2+] was estimated to be ∼100 nM using the online WEBMAXC standard calculator at https://somapp.ucdmc.ucdavis.edu/pharmacology/bers/maxchelator/webmaxc/webmaxcS.htm ([Bers et al., 2010]). Recordings were captured in pCLAMP 9 (Molecular Devices) using a 400-ms ramp protocol from −100 to +100 mV and a holding potential of 0 mV. Sampling was performed at 10 kHz with a 5 kHz low-pass band filter using an Axopatch 200B amplifier (Molecular Devices). All electrophysiology experiments were conducted at RT (∼23°C). […] Similarly, the minimum current for each inhibitor dose is taken as the stable minimum current observed after the drug has had time to exert an effect and after the flow-driven transient increase has subsided.
Data were analyzed using Microsoft Excel, Prism 9.5 (GraphPad Software), and Origin Pro 7.5 (OriginLab). Chemical structures were created using ChemDraw Professional 20.1.1 (PerkinElmer). Electrophysiology traces were plotted using Origin Pro 7.5, and the remaining data were plotted and statistically tested using Prism. Outliers were determined using the robust regression and outlier removal (ROUT) function within Prism. IC50 values were determined by plotting the percentage of maximum current observed as a function of applied drug concentration. A non-linear regression was fit using a standard Hill slope of −1.0 and the model: Y=100/[1+([Inhibitor]/IC50)]. Where appropriate, data are presented as individual values; otherwise the sample sizes and precision measures are indicated in the figure legends. P values of <0.05 were considered statistically significant.

In the case of CCCCCCCCc1ccc([C@@H]2CC[C@@](N)(CO)C2)cc1 [VPC01091.4, ((1S,3R)-1-amino-3-(4-octylphenyl)cyclopentyl)methanol], the “Activity at S1P receptors” value [1] is given as “not active”, the “Cytotoxicity (LDH release)” value ([2]; 25 μM, compared with positive control of 100% cytotoxicity) is given as 4% and the “Cytotoxicity (LDH release)” value ([2]; dosages up to 10 µM) is given as “did not result in any significant cytotoxicity”. For the same compound, the “Mean cytotoxicity (LDH release)” value ([2]; each dose up to 25 µM) was < 5%, the “LPS-induced IL-1β expression in TRPM7 KO BMDMs” value ([3]; 10 µM VPC4, 10 µM AAL-149, 5 µM FTY720, 30 μM NS8593) was “able to suppress” and the “LPS-induced IL-6 expression in Trpm7 KO BMDMs” value ([3]; 10 µM, effect on top of genetic deletion) was “additive effect”. The “Effect on whole-cell TRPM7 current (IM7)” value ([4]; 5 µM) was “current inhibition” and the IC50 ([4]; peak current at +100 mV, HEK 293T overexpressing mouse TRPM7, Hill slope -1.0, read-out: IC50 for inhibition of TRPM7 current (IM7)) was 665 nM.
